Tests used:
KRas G12D = KRas G12D (Homo sapiens, UniProt P01116, G12D); experiment: biochemical; details: Binding to KRas (IC50 nM) G12D, TR-FRET displacement, KRas G12D
MKN1 cells = experiment: Inhibition of KRas-mediated phosphorylation of ERK (Cisbio HTRF pERK), MKN1 cells; type: cell-based; details: Homo sapiens
Method: (§1) Inhibition of KRas Phosphorylation of ERK (HTRF) by Exemplary Compounds of Formula (I) Cisbio HTRF Advanced pERK Assay Catalog #64AERPEH • Cells: MKN1, PSN1 • Procedure: • Day 1: Seed 6,000 cells/well -25 µl/well in 384-well white solid bottom plate; RPM1_10% FBS.

H727 cells = experiment: Inhibition of KRas-mediated phosphorylation of ERK (Cisbio HTRF pERK), H727 cells; type: cell-based; details: Homo sapiens; for IC50: NCI-H727, 3 h, 3 hr compound incubation
KRas G12V = KRas G12V (Homo sapiens, UniProt P01116, G12V); experiment: biochemical; details: Binding to KRas (IC50 nM) G12V, TR-FRET displacement, KRas G12V
KRas G12V, sequence (P01116 1-169 isoform P01116-2 G12V): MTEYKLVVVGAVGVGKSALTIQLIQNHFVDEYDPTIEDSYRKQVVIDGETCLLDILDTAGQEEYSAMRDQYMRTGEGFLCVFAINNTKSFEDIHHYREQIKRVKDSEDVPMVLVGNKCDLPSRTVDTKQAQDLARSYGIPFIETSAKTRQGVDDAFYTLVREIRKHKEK

ASPC1 cells = experiment: Inhibition of KRas-mediated phosphorylation of ERK (Cisbio HTRF pERK), ASPC1 cells; type: cell-based; details: Homo sapiens, AsPC-1 cells; for IC50: ASPC1, 3 h, 3 hr compound incubation
H460 cells = experiment: Inhibition of KRas-mediated phosphorylation of ERK (Cisbio HTRF pERK), H460 cells; type: cell-based; details: Homo sapiens, NCI-H460, single point at 100 nM, 3 hrs compound incubation
HCT116 cells = experiment: Inhibition of KRas-mediated phosphorylation of ERK (Cisbio HTRF pERK), HCT116 cells; type: cell-based; details: Homo sapiens; for IC50: HCT-116, 3 h, 3 hr compound incubation, Cisbio pERK HTRF
PSN1 cells = experiment: Inhibition of KRas-mediated phosphorylation of ERK (Cisbio HTRF pERK), PSN1 cells; type: cell-based; details: Homo sapiens, PSN1, 3 h
Method: as §1

KRas G12R = KRas G12R (Homo sapiens, UniProt P01116, G12R); experiment: biochemical; details: Binding to KRas (IC50 nM) G12R, TR-FRET displacement, KRas G12R
KRas G12R, sequence (P01116 1-169 isoform P01116-2 G12R): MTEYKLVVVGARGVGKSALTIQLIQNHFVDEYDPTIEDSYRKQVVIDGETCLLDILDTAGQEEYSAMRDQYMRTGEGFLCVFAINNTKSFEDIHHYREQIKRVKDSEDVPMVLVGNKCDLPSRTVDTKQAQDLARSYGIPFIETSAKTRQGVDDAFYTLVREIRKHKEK

A549 cells = experiment: Inhibition of KRas-mediated phosphorylation of ERK (Cisbio HTRF pERK), A549 cells; type: cell-based; details: Homo sapiens; for inhibition at 0.1 µM: single point at 100 nM, 3 hrs compound incubation; for IC50: A549, 3 h, 3 hr compound incubation, Cisbio pERK HTRF
H358 cells = experiment: Inhibition of KRas-mediated phosphorylation of ERK (Cisbio HTRF pERK), H358 cells; type: cell-based; details: Homo sapiens, NCI-H358, single point at 100 nM, 3 hrs compound incubation
[1] = MKN-1, 3 hour compound incubation, Cisbio pERK HTRF
[2] = 3 hour compound incubation, Cisbio pERK HTRF

KRas G12D, sequence (P01116 1-169 isoform P01116-2 G12D): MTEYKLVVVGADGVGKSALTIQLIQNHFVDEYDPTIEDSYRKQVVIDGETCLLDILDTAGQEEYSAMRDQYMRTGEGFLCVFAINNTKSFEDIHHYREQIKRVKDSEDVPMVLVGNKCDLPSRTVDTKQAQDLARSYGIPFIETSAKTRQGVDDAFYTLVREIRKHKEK

| SMILES | IC50 (KRas G12D) [nM] | IC50 (MKN1 cells; [1]) [nM] | IC50 (H727 cells; Cisbio pERK HTRF) [nM] | IC50 (KRas G12V) [nM] | IC50 (ASPC1 cells; Cisbio pERK HTRF) [nM] | inhibition at 0.1 µM (H460 cells) [%] | inhibition at 0.1 µM (HCT116 cells; HCT-116, single point at 100 nM, 3 hrs compound incubation) [%] | IC50 (PSN1 cells; [2]) [nM] | IC50 (KRas G12R) [nM] | inhibition at 0.1 µM (A549 cells) [%] | IC50 (HCT116 cells) [nM] | inhibition at 0.1 µM (H358 cells) [%] | IC50 (A549 cells) [nM] | inhibition at 0.1 µM (H727 cells; NCI-H727, single point at 100 nM, 3 hrs compound incubation) [%] | inhibition at 0.1 µM (ASPC1 cells; ASPC1, single point at 100 nM, 3 hrs compound incubation) [%] | IC50 (MKN1 cells; MKN-1, 3 hr compound incubation) [nM] | IC50 (H727 cells) [nM] | IC50 (ASPC1 cells) [nM] | IC50 (PSN1 cells; 3 hr compound incubation) [nM] |
| --- | --- | --- | --- | --- | --- | --- | --- | --- | --- | --- | --- | --- | --- | --- | --- | --- | --- | --- | --- |
| CCc1c(F)ccc2cc(O)cc(N3CCc4c(nc(OC[C@@]56CCCN5C[C@H](F)C6)nc4N4CCCn5nc(CNC(=O)N(C)C)cc5C4)C3)c12 [Example 354, 3-((5-(7-(8-ethyl-7-fluoro-3-hydroxynaphthalen-1-yl)-2-(((2R,7aS)-2-fluorohexahydro-1H-pyrrolizin-7a-yl)methoxy)-5,6,7,8-tetrahydropyrido[3,4-d]pyrimidin-4-yl)-5,6,7,8-tetrahydro-4H-pyrazolo[1,5-a][1,4]diazepin-2-yl)methyl)-1,1-dimethylurea] | 3 | 814 | 1220 | 4 | 1060 | 8 | 11 | > 10000 | 5 | – | – | – | – | – | – | – | – | – | – |
| CCc1c(F)ccc2cc(O)cc(N3CCc4c(nc(OC[C@@]56CCCN5C[C@H](F)C6)nc4N4CCCn5nc(C(=O)O)cc5C4)C3)c12 [Example 389, 5-(7-(8-ethyl-7-fluoro-3-hydroxynaphthalen-1-yl)-2-(((2R,7aS)-2-fluorohexahydro-1H-pyrrolizin-7a-yl)methoxy)-5,6,7,8-tetrahydropyrido[3,4-d]pyrimidin-4-yl)-5,6,7,8-tetrahydro-4H-pyrazolo[1,5-a][1,4]diazepine-2-carboxylic acid] | < 2 | 54.8 | 214 | < 2 | 492 | – | – | > 10000 | < 2 | -36 | > 10000 | 23 | – | – | – | – | – | – | – |
| CCc1c(F)ccc2cc(O)cc(N3CCc4c(nc(OC[C@@]56CCCN5C[C@H](F)C6)nc4N4CCCn5nc(N(C)C)cc5C4)C3)c12 [Example 405, 4-(4-(2-(dimethylamino)-7,8-dihydro-4H-pyrazolo[1,5-a][1,4]diazepin-5(6H)-yl)-2-(((2R,7aS)-2-fluorotetrahydro-1H-pyrrolizin-7a(5H)-yl)methoxy)-5,8-dihydropyrido[3,4-d]pyrimidin-7(6H)-yl)-5-ethyl-6-fluoronaphthalen-2-ol] | 5 | 99.9 | 308 | 9 | 339 | – | – | > 10000 | 3 | – | – | – | 273 | – | – | – | – | – | – |
| CCc1c(F)ccc2cc(O)cc(N3CCc4c(nc(OC[C@@]56CCCN5C[C@H](F)C6)nc4N4C[C@H]5C[C@@H](C4)C(=O)NC5=O)C3)c12 [Example 416, (1R,5S)-7-(7-(8-ethyl-7-fluoro-3-hydroxynaphthalen-1-yl)-2-(((2R,7aS)-2-fluorohexahydro-1H-pyrrolizin-7a-yl)methoxy)-5,6,7,8-tetrahydropyrido[3,4-d]pyrimidin-4-yl)-3,7-diazabicyclo[3.3.1]nonane-2,4-dione] | 4 | 19.9 | 346 | < 2 | 486 | – | – | 4710 | < 2 | – | – | – | 100 | – | – | – | – | – | – |
| CCc1c(F)ccc2cc(O)cc(N3CCc4c(nc(OC[C@@]56CCCN5C[C@H](F)C6)nc4N4CCCC5(CSC5)C4)C3)c12 [Example 421, 5-ethyl-6-fluoro-4-(2-(((2R,7aS)-2-fluorohexahydro-1H-pyrrolizin-7a-yl)methoxy)-4-(2-thia-6-azaspiro[3.5]nonan-6-yl)-5,6-dihydropyrido[3,4-d]pyrimidin-7(8H)-yl)naphthalen-2-ol] | 5 | 449 | 275 | < 2 | 377 | – | – | 9630 | 3 | – | 3260 | – | 322 | – | – | – | – | – | – |
| CCc1c(F)ccc2cc(O)cc(N3CCc4c(nc(OC[C@@]56CCCN5C[C@H](F)C6)nc4N4Cc5cn(C(=O)N(C)C)nc5CC(C)(C)C4)C3)c12 [Example 424, 5-(7-(8-ethyl-7-fluoro-3-hydroxynaphthalen-1-yl)-2-(((2R,7aS)-2-fluorohexahydro-1H-pyrrolizin-7a-yl)methoxy)-5,6,7,8-tetrahydropyrido[3,4-d]pyrimidin-4-yl)-N,N,7,7-tetramethyl-5,6,7,8-tetrahydropyrazolo[4,3-c]azepine-2(4H)-carboxamide] | 31 | 148 | 460 | 5 | 926 | – | – | > 10000 | 9 | – | – | – | 698 | – | – | – | – | – | – |
| CCc1c(F)ccc2cc(O)cc(N3CCc4c(nc(OC[C@]56CCCN5[C@H](COC(=O)N(C)C)CC6)nc4N4CCC[C@@](C)(O)C4)C3)c12 [Example 435, ((3S,7aR)-7a-(((7-(8-ethyl-7-fluoro-3-hydroxynaphthalen-1-yl)-4-((R)-3-hydroxy-3-methylpiperidin-1-yl)-5,6,7,8-tetrahydropyrido[3,4-d]pyrimidin-2-yl)oxy)methyl)hexahydro-1H-pyrrolizin-3-yl)methyl dimethylcarbamate] | 2 | 40 | 578 | 3 | 172 | – | – | 4200 | 2 | – | 215 | – | 164 | – | – | – | – | – | – |
| O=C1CC2(CCCN(c3nc(OC[C@@]45CCCN4C[C@H](F)C5)nc4c3CCN(c3cc(O)cc5ccc(F)c(Cl)c35)C4)C2)C(=O)N1 (stereo partly drawn) [Example 467, 7-(7-(8-chloro-7-fluoro-3-hydroxynaphthalen-1-yl)-2-(((2R,7aS)-2-fluorohexahydro-1H-pyrrolizin-7a-yl)methoxy)-5,6,7,8-tetrahydropyrido[3,4-d]pyrimidin-4-yl)-2,7-diazaspiro[4.5]decane-1,3-dione] | < 2 | 37.2 | 257 | < 2 | 533 | – | – | 841 | < 2 | – | 296 | – | 226 | – | – | – | – | – | – |
| CCCCN(C)C(=O)c1cc2n(n1)CCCN(c1nc(OC[C@@]34CCCN3C[C@H](F)C4)nc3c1CCN(c1cc(O)cc4ccc(F)c(CC)c14)C3)C2 [Example 496, N-butyl-5-(7-(8-ethyl-7-fluoro-3-hydroxynaphthalen-1-yl)-2-(((2R,7aS)-2-fluorohexahydro-1H-pyrrolizin-7a-yl)methoxy)-5,6,7,8-tetrahydropyrido[3,4-d]pyrimidin-4-yl)-N-methyl-5,6,7,8-tetrahydro-4H-pyrazolo[1,5-a][1,4]diazepine-2-carboxamide] | < 2 | 16.3 | 19 | < 2 | 10 | – | – | 5350 | < 2 | 95 | – | 97 | – | 71 | 96 | – | – | – | – |
| CCc1c(F)ccc2cc(O)cc(N3CCc4c(nc(OC[C@@]56CCCN5C[C@H](F)C6)nc4N4CCCn5nc(C(=O)N(C6CC6)C6CC6)cc5C4)C3)c12 [Example 637, N,N-dicyclopropyl-5-(7-(8-ethyl-7-fluoro-3-hydroxynaphthalen-1-yl)-2-(((2R,7aS)-2-fluorotetrahydro-1H-pyrrolizin-7a(5H)-yl)methoxy)-5,6,7,8-tetrahydropyrido[3,4-d]pyrimidin-4-yl)-5,6,7,8-tetrahydro-4H-pyrazolo[1,5-a][1,4]diazepine-2-carboxamide] | < 2 | – | – | < 2 | – | – | – | – | < 2 | – | – | – | – | – | – | 1.4 | 9 | 11 | 6000 |

— patent publication US20250368649A1, “TETRAHYDROPYRIDOPYRIMIDINE PAN-KRAS INHIBITORS” (Mirati Therapeutics, Inc., priority 2022, published 2025)
